Measured values from ChEMBL document CHEMBL1155463 (J Med Chem, 2010).
In brackets after ≈: the same amount, converted by molar mass.

Assays:
physchem [1] = conditions: phosphate buffer, pH 9.9
Description: Thermodynamic solubility in 50 mM aqueous phosphate buffer of pH 9.9 at 22.5 degC by HPLC analysis

physchem [2] = test: physchem
Description: Ionization constant, pKa by spectrophotometry

physchem [3] = conditions: octanol/water, pH 7.4
physchem [4] = conditions: octanol/water
Description: Lipophilicity, log P of the compound

physchem [5] = conditions: aqueous solution, pH 1
Description: Chemical stability in aqueous solution at pH 1 after 2 hrs

SMILES | solubility thermodynamic (physchem [1]) [mM] | pKa (physchem [2]) | logD (physchem [3]) | logP (physchem [4]) | remaining at 2 h (physchem [5]) [%]
CN(C)CCCCc1ccc(C2(O)COC2)cc1 | 300 (≈ 74800 µg/mL) | 9.6 | – | – | –
CN(C)CCCCc1ccc(C2(F)COC2)cc1 | 24 (≈ 6030 µg/mL) | 9.9 | -0.5 | 2 | –
CN(C)CCCCc1ccc(C2COC2)cc1 | 17 (≈ 3970 µg/mL) | 9.9 | -0.1 | 2.4 | 83
CN(C)CCCCc1ccc(C(C)(C)C)cc1 | < 0.004 | – | – | 5 | –
CN(C)CCCCc1ccc(C2(C)COC2)cc1 | 18 (≈ 4450 µg/mL) | 9.9 | 0.8 | 3.3 | –
CN(C)CCC(C)(C)Cc1ccc(C(C)(C)C)cc1 | – | 9.5 | – | – | –
CN(C)CCC1(Cc2ccc(C(C)(C)C)cc2)COC1 | 15 (≈ 4130 µg/mL) | 9.2 | 1.7 | 3.5 | –
CN(C)CC(C)(C)CCc1ccc(C(C)(C)C)cc1 | 0.004 (≈ 1.05 µg/mL) | – | – | – | –
c1cc2c(cc1CN1CCCCC1)OCO2 | 2.1 (≈ 460 µg/mL) | 9.6 | – | – | –
CC1(C)CCCN1Cc1ccc2c(c1)OCO2 | 0.18 (≈ 42 µg/mL) | 10 | 0.9 | 3.5 | –
CCc1ccc(CCCCN(C)C)cc1 | 0.25 (≈ 51.3 µg/mL) | 9.9 | 1.8 | 4.3 | –
CN(C)CCCC(C)(C)c1ccc(C(C)(C)C)cc1 | < 0.004 | – | – | – | –
c1cc2c(cc1CN1CCCC1)OCO2 | 2.8 (≈ 575 µg/mL) | 9.7 | 0.2 | 2.5 | –
c1cc2c(cc1CN1CCC1)OCO2 | 13 (≈ 2490 µg/mL) | 9.5 | -0.1 | 2.1 | –
O=C1CCCCN1Cc1ccc2c(c1)OCO2 | 27 (≈ 6300 µg/mL) | – | 1.6 | 1.6 | –
c1cc2c(cc1CN1CCOCC1)OCO2 | 36 (≈ 7970 µg/mL) | 7 | 1.5 | 1.6 | –
CN(C)C1(CCCc2ccc(C(C)(C)C)cc2)COC1 | 0.21 (≈ 57.8 µg/mL) | 7.2 | 3.3 | 3.6 | –
CC1(C)CCN1Cc1ccc2c(c1)OCO2 | 1.7 (≈ 373 µg/mL) | 10.1 | 0.1 | 2.8 | –

SMILES | solubility thermodynamic (physchem [1]) [mM] | pKa (physchem [2]) | logD (physchem [3]) | logP (physchem [4]) | remaining at 2 h (physchem [5]) [%]
c1cc2c(cc1CN1CCC13COC3)OCO2 | 6 (≈ 1400 µg/mL) | 6.2 | 1.3 | 1.3 | –
O=C1CCN1Cc1ccc2c(c1)OCO2 | 10 (≈ 2050 µg/mL) | – | 1.1 | 1.1 | –
CC1(C)CN(Cc2ccc3c(c2)OCO3)C1 | 1.3 (≈ 285 µg/mL) | 9.6 | 0.8 | 3.1 | –
c1cc2c(cc1CN1CC3(COC3)C1)OCO2 | 100 (≈ 23300 µg/mL) | 8 | 0.5 | 1.2 | –
O=C1CCCN1Cc1ccc2c(c1)OCO2 | 6.8 (≈ 1490 µg/mL) | – | 1.2 | 1.2 | –
CC1(C)CCN(Cc2ccc3c(c2)OCO3)C1 | 0.17 (≈ 39.7 µg/mL) | 9.7 | 1.4 | 3.7 | –
c1cc2c(cc1CN1CCC3(COC3)C1)OCO2 | 3 (≈ 742 µg/mL) | 8.1 | 0.7 | 1.5 | –
O=C1CCN(Cc2ccc3c(c2)OCO3)C1 | 19 (≈ 4170 µg/mL) | 6.1 | 0.1 | -0.1 | –
CC1(C)CCCCN1Cc1ccc2c(c1)OCO2 | 0.12 (≈ 29.7 µg/mL) | 10.2 | 1.1 | 3.9 | –
c1cc2c(cc1CN1CCCCC13COC3)OCO2 | 2.9 (≈ 758 µg/mL) | 7 | 2.2 | 2.4 | –
CC1(C)CCCN(Cc2ccc3c(c2)OCO3)C1 | 0.053 (≈ 13.1 µg/mL) | 9.4 | 2.3 | 4.3 | –
CN(C)CCCC1(c2ccc(C(C)(C)C)cc2)COC1 | 0.98 (≈ 270 µg/mL) | 9.6 | 1.7 | 3.9 | –
c1cc2c(cc1CN1CCCC13COC3)OCO2 | 8.5 (≈ 2100 µg/mL) | 6.3 | 1.9 | 1.9 | –
c1cc2c(cc1CN1CCCC3(COC3)C1)OCO2 | 7.7 (≈ 2010 µg/mL) | 7.9 | 1.7 | 2.3 | –
O=C1CCCN(Cc2ccc3c(c2)OCO3)C1 | 9 (≈ 2100 µg/mL) | 7.6 | 0.1 | 0.5 | –
CC1(C)CCN(Cc2ccc3c(c2)OCO3)CC1 | 0.89 (≈ 220 µg/mL) | 9.5 | 2.3 | 4.4 | –
c1cc2c(cc1CN1CCC3(CC1)COC3)OCO2 | 5.4 (≈ 1410 µg/mL) | 8.3 | 1 | 2 | –
c1cc2c(cc1CN1CC3CC(C1)O3)OCO2 | > 11 | 7.1 | – | – | –
